25 compounds from PubChem BioAssay AID330 (DTP/NCI, 2004) can be followed below.

Where “and” joins values, the source holds several entries; their conditions need not be identical. Identical values can stand only once. Toxic doses and inconclusive results are not listed.

The test system of this assay is P388 leukemia ip, CD2F1 mice, survival T/C. Nature of the assay: NCI In Vivo Anticancer Drug Screen. Data for tumor model P388 Leukemia (intraperitoneal) in CD2F1 (CDF1) mice. The conditions noted are these: endpoint: median survival time, higher = longer survival. Put shortly: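 Mice carrying the transplanted tumor received test compound or vehicle. Survival was recorded in each group, and the value is the treated-group measurement divided by that of the vehicle-treated control group.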

The mark [1] stands for this setting: dose: 50.0 mg/kg/injection, schedule: Q01DX005 (ip), vehicle: saline with Tween-80.
[2] abbreviates: dose: 100.0 mg/kg/injection, schedule: Q01DX005 (ip), vehicle: saline with Tween-80.
[3] abbreviates: dose: 200.0 mg/kg/injection, schedule: Q01DX005 (ip), vehicle: saline with Tween-80.
The mark [4] stands for this setting: dose: 50.0 mg/kg/injection, schedule: Q01DX009 (ip), vehicle: saline with Tween-80.
Setting [5] is: dose: 100.0 mg/kg/injection, schedule: Q01DX009 (ip), vehicle: saline with Tween-80.
The mark [6] stands for this setting: dose: 200.0 mg/kg/injection, schedule: Q01DX009 (ip), vehicle: saline with Tween-80.
[7] abbreviates: dose: 50.0 mg/kg/injection, schedule: Q01DX005 (ip), vehicle: Klucel (hydroxypropylcellulose) (HPC).
Where [8] appears, read: dose: 100.0 mg/kg/injection, schedule: Q01DX005 (ip), vehicle: Klucel (hydroxypropylcellulose) (HPC).
Setting [9] is: dose: 200.0 mg/kg/injection, schedule: Q01DX005 (ip), vehicle: Klucel (hydroxypropylcellulose) (HPC).
Setting [10] is: dose: 50.0 mg/kg/injection, schedule: Q01DX009 (ip), vehicle: Klucel (hydroxypropylcellulose) (HPC).
Where [11] appears, read: dose: 100.0 mg/kg/injection, schedule: Q01DX009 (ip), vehicle: Klucel (hydroxypropylcellulose) (HPC).
[12] abbreviates: dose: 200.0 mg/kg/injection, schedule: Q01DX009 (ip), vehicle: Klucel (hydroxypropylcellulose) (HPC).
[13] abbreviates: dose: 50.0 mg/kg/injection, schedule: Q04DX003 (ip), vehicle: saline with Tween-80.
The mark [14] stands for this setting: dose: 100.0 mg/kg/injection, schedule: Q04DX003 (ip), vehicle: saline with Tween-80.
Where [15] appears, read: dose: 25.0 mg/kg/injection, schedule: Q04DX003 (ip), vehicle: saline with Tween-80.
[16] abbreviates: dose: 400.0 mg/kg/injection, schedule: Q01DX009 (ip), vehicle: Klucel (hydroxypropylcellulose) (HPC).

With `O=C1c2ccccc2C(=O)c2cc3c(cc21)C1OC3C2=C1CC1C(=O)OC(=O)C1C2` (stereo unspecified), the T/C was 111 % of control under setting [1], 93 % of control under setting [2] and 94 % of control under setting [3].
With `CC[C@]1(O)CN2CCc3c([nH]c4ccccc34)[C@@](C(=O)OC)(c3cc4c(cc3OC)N(C)[C@H]3[C@@](O)(C(=O)OC)[C@H](OC(C)=O)[C@]5(CC)C=CCN6CC[C@]43[C@@H]65)C[C@H](C2=O)[C@H]1O`, the T/C by setting is: (dose: 4.0 mg/kg/injection, schedule: Q01DX001 (ip), vehicle: water) 115 % of control; (dose: 8.0 mg/kg/injection, schedule: Q01DX001 (ip), vehicle: water) 117 % of control; (dose: 16.0 mg/kg/injection, schedule: Q01DX001 (ip), vehicle: water) 115 % of control and 124 % of control; (dose: 128.0 mg/kg/injection, schedule: Q01DX001 (ip), vehicle: water) 150 % of control.
Take `CCCCCCCCN(/N=C/c1c2c(O)c3c(O)c(C)c4c(c3c1O)C(=O)C(C)(O/C=C/C(OC)C(C)C(OC(C)=O)C(C)C(O)C(C)C(O)C(C)/C=C/C=C(C)C(=O)N2)O4)C1OC(COC(=O)c2ccccc2)C(OC(=O)c2ccccc2)C1OC(=O)c1ccccc1` (stereo unspecified): the T/C was 102 % of control under setting [4], 102 % of control under setting [5] and 107 % of control under setting [6].
As to `CCC1(CC)CC1C(=O)O` (stereo unspecified), the T/C is, setting by setting: under setting [7], 93 % of control; under setting [8], 89 % of control; under setting [9], 89 % of control.
Regarding `O=C1CC2(CCCC2)C(=O)N1c1ccc(N2C(=O)CC3(CCCC3)C2=O)cc1`, the T/C is 96 % of control under setting [10], 99 % of control under setting [11] and 96 % of control under setting [12].
As to `C/C=C(\C)C(=O)OCc1c2c(c(OC)c3occ(C)c13)C=CCC2C` (stereo unspecified), the T/C (dose: 5.5 mg/kg/injection, schedule: Q01DX009 (ip), vehicle: Klucel (hydroxypropylcellulose) (HPC)) is 94 % of control; the T/C (dose: 11.0 mg/kg/injection, schedule: Q01DX009 (ip), vehicle: Klucel (hydroxypropylcellulose) (HPC)) is 100 % of control; the T/C (dose: 22.0 mg/kg/injection, schedule: Q01DX009 (ip), vehicle: Klucel (hydroxypropylcellulose) (HPC)) was 100 % of control; the T/C (dose: 44.0 mg/kg/injection, schedule: Q01DX009 (ip), vehicle: Klucel (hydroxypropylcellulose) (HPC)) is 104 % of control.
For the compound `[C-]#[N+]N=P(c1ccccc1)(c1ccccc1)c1ccccc1`, the T/C runs as follows: (dose: 60.0 mg/kg/injection, schedule: Q01DX005 (ip), vehicle: Klucel (hydroxypropylcellulose) (HPC)) 107 % of control; (dose: 120.0 mg/kg/injection, schedule: Q01DX005 (ip), vehicle: Klucel (hydroxypropylcellulose) (HPC)) 114 % of control; (dose: 240.0 mg/kg/injection, schedule: Q01DX005 (ip), vehicle: Klucel (hydroxypropylcellulose) (HPC)) 122 % of control.
As for `CCOC(=O)Cc1csc(=S)n1Cc1ccccc1`, the T/C is 103 % of control under setting [1], 108 % of control under setting [2] and 95 % of control under setting [3].
For the compound `CCCCC(CC)CO.[Ti]` (stereo unspecified), the T/C is 90 % of control under setting [4]; 100 % of control under setting [13]; 109 % of control under setting [5]; 100 % of control under setting [14]; 100 % of control under setting [6]; 100 % of control (dose: 200.0 mg/kg/injection, schedule: Q04DX003 (ip), vehicle: saline with Tween-80).
For the compound `COC1(OC)CCN2OC(CO)CC21` (stereo unspecified), the T/C under setting [15] is 103 % of control; the T/C under setting [13] was 100 % of control; the T/C under setting [14] is 100 % of control and 101 % of control.
With `C[C@]12CCC(=O)C(O)=C1CC[C@@H]1[C@@H]2CC[C@]2(C)C(=O)CC[C@@H]12`, the T/C is 111 % of control and 96 % of control (dose: 12.5 mg/kg/injection, schedule: Q01DX009 (ip), vehicle: Klucel (hydroxypropylcellulose) (HPC)); 100 % of control and 111 % of control (dose: 25.0 mg/kg/injection, schedule: Q01DX009 (ip), vehicle: Klucel (hydroxypropylcellulose) (HPC)); 105 % of control and 106 % of control under setting [10]; 92 % of control and 93 % of control under setting [11]; 92 % of control and 96 % of control under setting [12]; 111 % of control and 88 % of control under setting [16].
`CCOC(=O)/C(=C\Nc1cccc(OCc2ccccc2)c1)NC(=O)c1ccccc1`: the T/C under setting [10] was 87 % of control; the T/C under setting [11] was 88 % of control; the T/C under setting [12] is 86 % of control and 96 % of control; the T/C under setting [16] is 97 % of control.
`C[N+]1=C(/C=C/Nc2ccc3c4c(cccc24)-c2ccccc2-3)C(C)(C)c2ccccc21`: the T/C reads like this: under setting [4], 108 % of control; under setting [5], 105 % of control; under setting [6], 118 % of control.
Take `OC1=CC(=S)NC2CCCCC12` (stereo unspecified): the T/C reads like this: under setting [7], 86 % of control; under setting [8], 102 % of control; under setting [9], 102 % of control.
On to `C1=NCCNc2nc3ccccc3cc2C=NCCNc2nc3ccccc3cc21`, for which the T/C (dose: 50.0 mg/kg/injection, schedule: Q04DX002 (ip), vehicle: saline) was 100 % of control; the T/C (dose: 100.0 mg/kg/injection, schedule: Q04DX002 (ip), vehicle: saline) is 99 % of control; the T/C (dose: 200.0 mg/kg/injection, schedule: Q04DX002 (ip), vehicle: saline) is 99 % of control.
With `CNCC(O)CC12CCC(c3ccccc31)c1ccccc12` (stereo unspecified), the T/C under setting [10] is 104 % of control and the T/C under setting [11] was 106 % of control.
As for `O=C(Cl)c1ccccc1Sc1ccccc1`, the T/C is, setting by setting: (dose: 25.0 mg/kg/injection, schedule: Q01DX009 (ip), vehicle: saline with Tween-80) 95 % of control; under setting [15], 100 % of control; under setting [4], 90 % of control; under setting [13], 100 % of control; under setting [5], 100 % of control; under setting [14], 100 % of control.
For the compound `CCOC(=O)N=C=S`, the T/C by setting is: under setting [4], 108 % of control; under setting [5], 108 % of control.
As to `CCOC(=O)C1=CC(C(=O)OCC)=C2C=CC=C3C=CC=C1N32`, the T/C by setting is: (dose: 60.0 mg/kg/injection, schedule: Q01DX005 (ip), vehicle: saline with Tween-80) 93 % of control; (dose: 120.0 mg/kg/injection, schedule: Q01DX005 (ip), vehicle: saline with Tween-80) 90 % of control; (dose: 240.0 mg/kg/injection, schedule: Q01DX005 (ip), vehicle: saline with Tween-80) 88 % of control.
With `Cc1cc(=O)n2c(nc3cc([N+](=O)[O-])ccc32)s1`, the T/C is 98 % of control under setting [10], 99 % of control under setting [11] and 98 % of control under setting [12].
Turning to `O=C1NC(=O)N(CCO)C(=O)C1c1ccccc1` (stereo unspecified), the T/C is 101 % of control under setting [10], 101 % of control under setting [11] and 94 % of control under setting [12].
Consider `CCCCCCCCCCCC(=O)N(CCCC)CCCC`, for which the T/C (dose: 37.5 mg/kg/injection, schedule: Q01DX009 (ip), vehicle: Klucel (hydroxypropylcellulose) (HPC)) is 100 % of control; the T/C (dose: 75.0 mg/kg/injection, schedule: Q01DX009 (ip), vehicle: Klucel (hydroxypropylcellulose) (HPC)) is 98 % of control; the T/C (dose: 150.0 mg/kg/injection, schedule: Q01DX009 (ip), vehicle: Klucel (hydroxypropylcellulose) (HPC)) was 92 % of control.
For the compound `Cc1c2ccncc2c(CN2C(=O)c3ccccc3C2=O)c2c3ccccc3n(C)c12`, the T/C is 102 % of control (dose: 12.5 mg/kg/injection, schedule: Q04DX002 (ip), vehicle: saline with Tween-80); 100 % of control (dose: 25.0 mg/kg/injection, schedule: Q04DX002 (ip), vehicle: saline with Tween-80); 98 % of control (dose: 50.0 mg/kg/injection, schedule: Q04DX002 (ip), vehicle: saline with Tween-80); 95 % of control (dose: 100.0 mg/kg/injection, schedule: Q04DX002 (ip), vehicle: saline with Tween-80).
On to `COC1/C=C/OC2(C)Oc3c(C)c(O)c4c(O)c(c(/C=N/N5C(C)CN(Cc6ccccc6O)CC5C)c(O)c4c3C2=O)NC(=O)/C(C)=C\C=C\C(C)C(O)C(C)C(O)C(C)C(OC(C)=O)C1C` (stereo unspecified), for which the T/C runs as follows: under setting [4], 92 % of control; under setting [5], 96 % of control; under setting [6], 91 % of control.
As to `CCCCCOC(=O)CN(CC(=O)OCCCCC)c1ccc(C=O)cc1`, the T/C was 95 % of control (dose: 25.0 mg/kg/injection, schedule: Q04DX003 (ip), vehicle: other); 100 % of control (dose: 50.0 mg/kg/injection, schedule: Q04DX003 (ip), vehicle: other); 100 % of control (dose: 100.0 mg/kg/injection, schedule: Q04DX003 (ip), vehicle: other).
